The test deals with C. difficile spores. The test is described as follows: Inhibition of germination of spores and/or inhibition of growth in Duncan and Foster growth medium. Type of test: cell-based, Clostridium difficile. As to conditions: Clostridioides difficile; 0.7 mM in growth medium; by 17 h; read-out: inhibition of spore germination.

The inhibition is how much of the control response was suppressed.

As to `CC/C=C\C/C=C\C/C=C\CCCCCCCC(=O)O` [linolenic acid], the inhibition at 700 µM was about 5%.

For the origin of these results see patent publication US20080254010A1, “Controlling Clostridium difficile-Associated Disease in the Gastrointestinal Tract” (priority 2007, published 2008).
